Target: T1, BtuJ1 (BT1491) (Bacteroides thetaiotaomicron, UniProt Q8A7N3)
T1 construct: gene BT_1491; mature part without lipid anchor residue (signal peptide cleaved between 21 and 22); His-tagged, pET28 NcoI/XhoI, E. coli BL21(DE3); modelled from Met29
T1 sequence (Q8A7N3 23-256): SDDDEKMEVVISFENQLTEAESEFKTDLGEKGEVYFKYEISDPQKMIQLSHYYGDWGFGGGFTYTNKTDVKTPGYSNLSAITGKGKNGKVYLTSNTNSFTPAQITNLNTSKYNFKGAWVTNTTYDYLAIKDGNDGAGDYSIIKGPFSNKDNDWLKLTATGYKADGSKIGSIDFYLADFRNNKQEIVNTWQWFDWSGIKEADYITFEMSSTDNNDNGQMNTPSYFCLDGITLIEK
Assay: binding shown in supplementary figure, method not stated in main text
Settings: AdoCbl added at 1:2 protein:corrinoid, then SEC in 10 mM Hepes, 100 mM NaCl, pH 7.5

C/C1=C2/[N-][C@H]([C@H](CC(N)=O)[C@@]2(C)CCC(=O)NC[C@@H](C)OP(=O)([O-])O[C@H]2C(O)[C@@H](n3cnc4cc(C)c(C)cc43)O[C@@H]2CO)[C@]2(C)N=C(/C(C)=C3N=C(/C=C4N=C1[C@@H](CCC(N)=O)C\4(C)C)[C@@H](CCC(N)=O)[C@]\3(C)CC(N)=O)[C@@H](CCC(N)=O)[C@]2(C)CC(N)=O.[CH2-][C@H]1O[C@@H](n2cnc3c(N)ncnc32)[C@H](O)[C@@H]1O.[Co+3] (stereo partly shown) [AdoCbl, adenosylcobalamin]
binding shown in supplementary figure, method not stated in main text: BtuJ1 also binds adenosylcobalamin, which has a bulkier upper ligand compared to other cobalamins
